Tested on: E. coli strain 25922
Assay: Efficacy Study of E. coli Strain 25922 (coupon touch transfer to TSA plate)
Assay type: cell-based
Conditions: 60 s contact time, Rep 1 and 2
Method: On a coupon, 0.05 mL of the inocula (E. coli strain 25922) was added to the center of each test coupon and left to dry. Using a sterile glove, 0.05 grams of the test lotion was mechanically rubbed onto the test coupon to mimic rubbing hand sanitizer onto the skin of hands. There was a contact time of either 60 seconds or 4 hours allowed to lapse prior to placing the coupon touch transfer to the trypticase soy agar (TSA) plate. The coupon was then placed onto the TSA plate and allowed contact for 15 seconds in 3 different locations. The plates were then incubated for 24 hours at 37° C.

[1] = 0.05 grams lotion on inoculated coupon, TNTC = Too Numerous to Count

## CC(C)O [Control 17, isopropyl alcohol]
[1]
  Placement 1/CFU: 0 CFU
  Placement 2/CFU: 0 CFU
  Placement 3/CFU: 0 CFU
Criteria ~5 Log Reduction in 60 sec.
  Log Reduction: 6 Log

Reference: US11484483B2, “Topical lotion having sanitizing properties” (Shear Kershman Laboratories, Inc, priority 2020, dated 2022)
